Assay results: ChEMBL document CHEMBL6109148, “Development of Squaramides as Allosteric Modulators of the CB1 Receptor: Synthesis, Computational Studies, Biological Characterization, and Effects against Cocaine-Induced Behavioral Sensitization and Reinstatement in Rats” (J Med Chem, 2025); call rule not given here

How the values were obtained:
Cannabinoid receptor 1 [1] = target: T1, Cannabinoid receptor 1 (Homo sapiens, UniProt P21554); assay: Agonist activity at human CB1 receptor stably expressed in CHO-RD-HGA16 cells assessed as increase in intracellular calcium mobilization at 10 uM by FLIPR assay relative to CP55940; type: functional, cell-based
[2] = target: Cannabinoid receptor 2 (Homo sapiens) (UniProt P34972); assay: Antagonist activity at human CB2 receptor stably expressed in CHO-RD-HGA16 cells assessed as inhibition of CP55940-induced intracellular calcium mobilization at 10 uM by FLIPR assay relative to CP55940; type: functional, cell-based; design: scale not given: the % may be the effect or the level left
Cannabinoid receptor 1 [3] = target: T1, Cannabinoid receptor 1; assay: Negative allosteric modulation of human CB1 receptor stably expressed in CHO-RD-HGA16 cells assessed as inhibition of CP55940-induced intracellular calcium mobilization incubated for 15 mins by FLIPR assay; type: functional, cell-based
Cannabinoid receptor 1 [4] = target: Cannabinoid receptor 1 (Mus musculus, UniProt P47746); assay: Negative allosteric modulation of CD-1 mouse CB1 receptor extracted from cerebellum membrane in presence of [35S]GTP-gammaS; type: cell membranes
[5] = Stability in human hepatocytes assessed as clearance at 1 uM measured up to 120 mins by LC/MS/MS analysis; type: ADME, cell-based, Hepatocyte; conditions: 2 h
[6] = Protein binding in rat plasma at 1 uM incubated for 6 hrs by LC-MS/MS analysis; type: ADME, cell-free
[7] = Drug concentration in brain of Sprague-Dawley rat at 5.6 mg/kg, ip measured after 1 hr by LC-MS/MS analysis; type: ADME, organism-based; conditions: read-out: Ct
[8] = Drug concentration in plasma of Sprague-Dawley rat at 5.6 mg/kg, ip measured after 1 hr by LC-MS/MS analysis; type: ADME, organism-based
[9] = Kinetic solubility of compound in PBS incubated for 2 hrs by LC-MS/MS analysis; type: physicochemical; conditions: read-out: Kinetic_solubility
[10] = Protein binding in human plasma at 1 uM incubated for 6 hrs by LC-MS/MS analysis; type: ADME, cell-free
[11] = Drug concentration in brain of Sprague-Dawley rat at 5.6 mg/kg, ip measured after 8 hrs by LC-MS/MS analysis; type: ADME, organism-based; conditions: read-out: Ct
[12] = Drug concentration in plasma of Sprague-Dawley rat at 5.6 mg/kg, ip measured after 0.5 hrs by LC-MS/MS analysis; type: ADME, organism-based
[13] = Drug excretion in Sprague-Dawley rat at 1 mg/kg, iv measured after 4 hrs by LC-MS/MS analysis; type: ADME, organism-based; conditions: in vivo
[14] = Stability in human hepatocytes assessed as half life at 1 uM measured up to 120 mins by LC/MS/MS analysis; type: ADME, cell-based, Hepatocyte; conditions: 2 h
[15] = Drug concentration in brain of Sprague-Dawley rat at 5.6 mg/kg, ip measured after 0.5 hrs by LC-MS/MS analysis; type: ADME, organism-based; conditions: read-out: Ct
[16] = Drug concentration in plasma of Sprague-Dawley rat at 1 mg/kg, iv measured after 5 mins by LC-MS/MS analysis; type: ADME, organism-based
[17] = Stability in human liver microsomes assessed as half life at 1 uM preincubated for 10 mis followed by NADPH addition measured for 15 to 60 mins by LC-MS/MS analysis; type: ADME, Microsome; conditions: time 25-70 min
[18] = Drug concentration in plasma of Sprague-Dawley rat at 5.6 mg/kg, ip measured after 0.25 hrs by LC-MS/MS analysis; type: ADME, organism-based
[19] = Protein binding in rat brain at 1 uM incubated for 6 hrs by LC-MS/MS analysis; type: ADME, tissue-based
[20] = Drug concentration in plasma of Sprague-Dawley rat at 5.6 mg/kg, ip measured after 8 hrs by LC-MS/MS analysis; type: ADME, organism-based
Cannabinoid receptor 1 [21] = target: T1, Cannabinoid receptor 1; assay: Negative allosteric modulation of human CB1 extracted from HEK293 cell membrane assessed as increase in forskolin-induced cAMP production preincubated for 15 mins followed by forskolin/CP55940 addition by BRET CAMYEL cAMP assay
[22] = Drug concentration in brain of Sprague-Dawley rat at 5.6 mg/kg, ip measured after 0.25 hrs by LC-MS/MS analysis; type: ADME, organism-based; conditions: read-out: Ct
Cannabinoid receptor 1 [23] = target: T1, Cannabinoid receptor 1; assay: Negative allosteric modulation of human CB1 extracted from HEK293 cell membrane assessed as specific binding of [3H]CP55940 incubated for 90 mins; type: cell membranes
[24] = Stability in human liver microsomes assessed as clearance at 1 uM preincubated for 10 mis followed by NADPH addition measured for 15 to 60 mins by LC-MS/MS analysis; type: ADME, Microsome; conditions: time 25-70 min
[25] = Half life in Sprague-Dawley rat at 1 mg/kg, iv measured for 0.08 to 8 hrs by LC-MS/MS analysis; type: ADME, organism-based; conditions: in vivo, time 0.08-8 hrs
[26] = Apparent permeability across basal to apical side in MDCK-MDR1 cells at 10 uM measured for 30 to 90 mins by LC-MS/MS analysis; type: ADME, cell-based, Canis lupus familiaris; conditions: dog, mdck-mdr1, 10 µM, time 30-90 min
[27] = Apparent permeability across apical to basal side in MDCK-MDR1 cells at 10 uM measured for 30 to 90 mins by LC-MS/MS analysis; type: ADME, cell-based, Canis lupus familiaris; conditions: dog, mdck-mdr1, 10 µM, time 30-90 min
Cannabinoid receptor 1 [28] = target: T1, Cannabinoid receptor 1; assay: Negative allosteric modulation of human CB1 receptor extracted from HEK293 cell membrane in presence of [35S]GTP-gammaS; type: cell membranes

T1 sequence (P21554 whole entry): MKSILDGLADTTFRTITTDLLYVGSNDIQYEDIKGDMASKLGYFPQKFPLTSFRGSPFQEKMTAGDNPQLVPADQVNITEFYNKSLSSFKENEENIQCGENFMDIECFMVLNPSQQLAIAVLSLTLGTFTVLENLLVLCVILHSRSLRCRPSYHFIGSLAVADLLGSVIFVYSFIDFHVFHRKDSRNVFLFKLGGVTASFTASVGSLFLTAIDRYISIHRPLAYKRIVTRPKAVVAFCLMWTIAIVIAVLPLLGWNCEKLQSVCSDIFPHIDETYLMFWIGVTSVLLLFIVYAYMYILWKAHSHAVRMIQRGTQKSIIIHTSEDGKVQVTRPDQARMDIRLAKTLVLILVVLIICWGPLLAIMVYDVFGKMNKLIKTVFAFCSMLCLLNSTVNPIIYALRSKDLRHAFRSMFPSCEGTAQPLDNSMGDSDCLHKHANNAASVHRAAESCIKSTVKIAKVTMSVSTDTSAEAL
Cannabinoid receptor 1 (Mus musculus, UniProt P47746), sequence (P47746 whole entry): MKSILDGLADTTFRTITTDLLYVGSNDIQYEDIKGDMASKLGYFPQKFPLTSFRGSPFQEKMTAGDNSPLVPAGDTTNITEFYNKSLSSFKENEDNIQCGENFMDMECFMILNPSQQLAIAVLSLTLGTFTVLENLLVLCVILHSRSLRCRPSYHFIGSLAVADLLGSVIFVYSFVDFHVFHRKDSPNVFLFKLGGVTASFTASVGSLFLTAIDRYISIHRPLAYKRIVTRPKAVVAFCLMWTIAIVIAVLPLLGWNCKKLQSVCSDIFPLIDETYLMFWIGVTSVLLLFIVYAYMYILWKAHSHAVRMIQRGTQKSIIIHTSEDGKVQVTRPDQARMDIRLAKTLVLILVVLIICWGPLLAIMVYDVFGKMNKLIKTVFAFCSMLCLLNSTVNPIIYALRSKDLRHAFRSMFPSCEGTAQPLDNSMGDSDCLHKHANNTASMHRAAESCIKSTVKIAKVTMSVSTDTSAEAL
Cannabinoid receptor 2 (Homo sapiens), sequence (P34972 whole entry): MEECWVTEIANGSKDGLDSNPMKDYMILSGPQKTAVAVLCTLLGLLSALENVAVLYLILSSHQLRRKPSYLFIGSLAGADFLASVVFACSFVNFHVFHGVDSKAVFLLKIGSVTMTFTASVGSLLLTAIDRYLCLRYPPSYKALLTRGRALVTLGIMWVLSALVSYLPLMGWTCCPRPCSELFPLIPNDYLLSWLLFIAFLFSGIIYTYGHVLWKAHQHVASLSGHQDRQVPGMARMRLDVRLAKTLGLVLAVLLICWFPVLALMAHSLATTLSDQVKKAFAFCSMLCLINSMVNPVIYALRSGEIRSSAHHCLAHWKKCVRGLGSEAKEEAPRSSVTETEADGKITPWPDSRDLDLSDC

CCN(CC)c1ccc(CCNc2c(Nc3ccc(Cl)cc3)c(=O)c2=O)cc1
Activity (Cannabinoid receptor 1 [1]): < 30% | Activity [2]: < 50% | IC50 (Cannabinoid receptor 1 [3]): > 10000 nM

O=c1c(NCCc2cccc(O)c2)c(Nc2ccc(Cl)cc2)c1=O
Activity (Cannabinoid receptor 1 [1]): < 30% | Activity [2]: < 50% | IC50 (Cannabinoid receptor 1 [3]): > 10000 nM

Cc1cccc(CCNc2c(Nc3ccc(Cl)cc3)c(=O)c2=O)c1
Activity (Cannabinoid receptor 1 [1]): < 30% | Activity [2]: < 50% | IC50 (Cannabinoid receptor 1 [3]): 195 nM | IC50 (Cannabinoid receptor 1 [4]): 912 nM

O=c1c(NCCc2ccncc2)c(Nc2ccc(Cl)cc2)c1=O
Activity (Cannabinoid receptor 1 [1]): < 30% | Activity [2]: < 50%

O=c1c(NCCc2cccc(Cl)c2)c(Nc2ccc(Cl)cc2)c1=O
CLH [5]: 39.9 µL/min/mg | PPB [6]: > 99% | concentration at 1 h [7]: 93.8 ng/mL | concentration at 1 h [8]: 12.1 ng/mL | solubility kinetic at 2 h [9]: < 1 µg/mL | PPB [10]: > 99% | concentration at 8 h [11]: 54.8 ng/mL | concentration at 0.5 h [12]: 11.7 ng/mL | Drug excretion [13]: Active | t1/2 [14]: 88.3 min | concentration at 0.5 h [15]: 59.5 ng/mL | concentration at 5 min [16]: 1240 ng/mL | t1/2 [17]: 15.8 min | concentration at 0.25 h [18]: 8.7 ng/mL | PB [19]: > 99% | concentration at 8 h [20]: 4.6 ng/mL | IC50 (Cannabinoid receptor 1 [21]): 148 nM | IC50 (Cannabinoid receptor 1 [4]): 214 nM | concentration at 0.25 h [22]: 173 ng/mL | EC50 (Cannabinoid receptor 1 [23]): 692 nM | CLH [24]: 87.8 µL/min/mg | t1/2 [25]: 30.6 min | Papp [26]: 6.4 10^-6 cm/s | Papp [27]: 3.1 10^-6 cm/s

CN(C)c1ccc(CCNc2c(Nc3ccc(Cl)cc3)c(=O)c2=O)cc1
Activity (Cannabinoid receptor 1 [1]): < 30% | Activity [2]: < 50% | IC50 (Cannabinoid receptor 1 [3]): 501 nM | IC50 (Cannabinoid receptor 1 [4]): 617 nM

COc1ccccc1CCNc1c(Nc2ccc(Cl)cc2)c(=O)c1=O
Activity (Cannabinoid receptor 1 [1]): < 30% | Activity [2]: < 50%

O=c1c(NCCc2ccc(Cl)c(Cl)c2)c(Nc2ccc(Cl)cc2)c1=O
Activity (Cannabinoid receptor 1 [1]): < 30% | Activity [2]: < 50%

O=c1c(NCCc2cccc(F)c2)c(Nc2ccc(Cl)cc2)c1=O
Activity (Cannabinoid receptor 1 [1]): < 30% | Activity [2]: < 50% | IC50 (Cannabinoid receptor 1 [3]): 282 nM

Cc1ccc(CCNc2c(Nc3ccc(Cl)cc3)c(=O)c2=O)cc1
Activity (Cannabinoid receptor 1 [1]): < 30% | Activity [2]: < 50% | IC50 (Cannabinoid receptor 1 [3]): 158 nM | IC50 (Cannabinoid receptor 1 [4]): 646 nM

O=c1c(NCCc2cccs2)c(Nc2ccc(Cl)cc2)c1=O
Activity (Cannabinoid receptor 1 [1]): < 30% | Activity [2]: < 50% | IC50 (Cannabinoid receptor 1 [3]): 692 nM

O=c1c(NCCCc2ccccc2)c(Nc2ccc(Cl)cc2)c1=O
Activity (Cannabinoid receptor 1 [1]): < 30% | Activity [2]: < 50% | IC50 (Cannabinoid receptor 1 [3]): 871 nM

O=c1c(NCCc2ccc(N3CCC3)cc2)c(Nc2ccc(Cl)cc2)c1=O
Activity (Cannabinoid receptor 1 [1]): < 30% | Activity [2]: < 50%

O=c1c(NCCc2ccc(Br)cc2)c(Nc2ccc(Cl)cc2)c1=O
Activity (Cannabinoid receptor 1 [1]): < 30% | Activity [2]: < 50% | IC50 (Cannabinoid receptor 1 [3]): > 10000 nM

O=c1c(Nc2ccc(Cl)cc2)c(N2CCN(c3ccc(Cl)cc3)CC2)c1=O
Activity (Cannabinoid receptor 1 [1]): < 30% | Activity [2]: < 50% | IC50 (Cannabinoid receptor 1 [3]): > 10000 nM

O=c1c(NCCc2cccc(C(F)(F)F)c2)c(Nc2ccc(Cl)cc2)c1=O
Activity (Cannabinoid receptor 1 [1]): < 30% | Activity [2]: < 50% | IC50 (Cannabinoid receptor 1 [3]): 339 nM

O=c1c(NCc2ccccc2)c(Nc2ccc(Cl)cc2)c1=O
Activity (Cannabinoid receptor 1 [1]): < 30% | Activity [2]: < 50% | IC50 (Cannabinoid receptor 1 [3]): > 10000 nM

COc1ccc(CCNc2c(Nc3ccc(Cl)cc3)c(=O)c2=O)cc1
Activity (Cannabinoid receptor 1 [1]): < 30% | Activity [2]: < 50% | IC50 (Cannabinoid receptor 1 [3]): 525 nM

O=c1c(NCCc2ccccc2F)c(Nc2ccc(Cl)cc2)c1=O
Activity (Cannabinoid receptor 1 [1]): < 30% | Activity [2]: < 50% | IC50 (Cannabinoid receptor 1 [3]): 269 nM | IC50 (Cannabinoid receptor 1 [28]): 6610 nM | IC50 (Cannabinoid receptor 1 [4]): 5620 nM

Cc1ccc(CCNc2c(Nc3ccc(Cl)cc3)c(=O)c2=O)cc1C
Activity (Cannabinoid receptor 1 [1]): < 30% | Activity [2]: < 50% | IC50 (Cannabinoid receptor 1 [3]): 427 nM

CC(=O)c1ccc(CCNc2c(Nc3ccc(Cl)cc3)c(=O)c2=O)cc1
Activity (Cannabinoid receptor 1 [1]): < 30% | Activity [2]: < 50% | IC50 (Cannabinoid receptor 1 [3]): > 10000 nM

O=c1c(NCCc2ccc(N3CCCCC3)cc2)c(Nc2ccc(Cl)cc2)c1=O
Activity (Cannabinoid receptor 1 [1]): < 30% | Activity [2]: < 50%

O=C(Nc1ccc(Cl)cc1)Nc1cccc(-c2cccc(N3CCCC3)n2)c1
Activity [2]: < 50%

O=c1c(NCCc2ccccc2)c(Nc2ccc(Cl)cc2)c1=O
Activity (Cannabinoid receptor 1 [1]): < 30% | Activity [2]: < 50% | IC50 (Cannabinoid receptor 1 [3]): 204 nM

O=c1c(NCCc2ccccn2)c(Nc2ccc(Cl)cc2)c1=O
Activity (Cannabinoid receptor 1 [1]): < 30% | Activity [2]: < 50%

O=c1c(NCCc2ccccc2C(F)(F)F)c(Nc2ccc(Cl)cc2)c1=O
Activity (Cannabinoid receptor 1 [1]): < 30% | Activity [2]: < 50%

CN(C)c1cccc(CCNc2c(Nc3ccc(Cl)cc3)c(=O)c2=O)c1
Activity (Cannabinoid receptor 1 [1]): < 30% | Activity [2]: < 50%

O=c1c(NCCc2ccccc2Cl)c(Nc2ccc(Cl)cc2)c1=O
Activity (Cannabinoid receptor 1 [1]): < 30% | Activity [2]: < 50% | IC50 (Cannabinoid receptor 1 [3]): 832 nM

O=c1c(NCCc2ccc(N3CCCC3)cc2)c(Nc2ccc(Cl)cc2)c1=O
Activity (Cannabinoid receptor 1 [1]): < 30% | Activity [2]: < 50%

O=c1c(NCCN2CCCCC2)c(Nc2ccc(Cl)cc2)c1=O
Activity (Cannabinoid receptor 1 [1]): < 30% | Activity [2]: < 50%

O=c1c(NCCc2ccc(F)cc2F)c(Nc2ccc(Cl)cc2)c1=O
Activity (Cannabinoid receptor 1 [1]): < 30% | Activity [2]: < 50% | IC50 (Cannabinoid receptor 1 [3]): 912 nM

O=c1c(NCCc2ccc(Cl)cc2Cl)c(Nc2ccc(Cl)cc2)c1=O
Activity [2]: < 50%

Cc1ccccc1CCNc1c(Nc2ccc(Cl)cc2)c(=O)c1=O
Activity (Cannabinoid receptor 1 [1]): < 30% | Activity [2]: < 50% | IC50 (Cannabinoid receptor 1 [3]): 1260 nM

O=c1c(NCCc2ccc(C(F)(F)F)cc2)c(Nc2ccc(Cl)cc2)c1=O
Activity (Cannabinoid receptor 1 [1]): < 30% | Activity [2]: < 50%

O=c1c(NCCc2ccc(Cl)cc2)c(Nc2ccc(Cl)cc2)c1=O
Activity (Cannabinoid receptor 1 [1]): < 30% | Activity [2]: < 50%

O=c1c(NCCc2ccc(F)cc2)c(Nc2ccc(Cl)cc2)c1=O
Activity (Cannabinoid receptor 1 [1]): < 30% | Activity [2]: < 50%

COc1cccc(CCNc2c(Nc3ccc(Cl)cc3)c(=O)c2=O)c1
Activity (Cannabinoid receptor 1 [1]): < 30% | Activity [2]: < 50%
